The source of these data is ChEMBL document CHEMBL5137024, “Discovery of novel coumarin-indole derivatives as tubulin polymerization inhibitors with potent anti-gastric cancer activities” (Eur J Med Chem, 2022).

Assay [1] concerns MGC-803. The experiment in a line: Antiproliferative activity against human MGC-803 cells assessed as reduction in cell viability incubated for 48 hrs by MTT assay. In kind it is functional, cell-based. Particulars: Homo sapiens, MGC-803, 48 h. (Tetrazolium dyes change colour on reduction, which living cells bring about.)
Assay [2] has as its system KYSE-450. The experiment in a line: Antiproliferative activity against human KYSE-450 cells assessed as reduction in cell viability incubated for 48 hrs by MTT assay. Format: functional, cell-based. The note with it: KYSE-450, 48 h.
Assay [3] deals with HCT-116. Briefly: cells. The note with it: Homo sapiens, HCT-116, 48 h.

On to `Cn1ccc2cc(Nc3cc(=O)oc4ccccc34)ccc21`, for which the IC50 came out at 110 nM in assay [1], 310 nM in assay [2] and 270 nM in assay [3].

As for `COc1ccc2c(c1)c(C=O)cn2-c1cc(=O)oc2ccccc12`, the IC50 in assay [1], in assay [2] and in assay [3] was over 20000 nM throughout.

`CCN(c1ccc2c(ccn2C)c1)c1cc(=O)oc2ccccc12`: the values for the concentration for half-maximal inhibition (IC50) in assay [1], in assay [2] and in assay [3] were 87 nM, 128 nM and 102 nM, respectively.

Take `O=C(c1c[nH]c2ccccc12)c1cc(=O)oc2ccccc12`: the half-maximal inhibitory concentration (IC50) in assay [1], in assay [2] and in assay [3] was over 20000 nM throughout.

Turning to `CCn1ccc2cc(-c3cc(=O)oc4ccccc34)ccc21`, the results for the IC50 in assay [1], in assay [2] and in assay [3] were 1210 nM, 840 nM and 980 nM, respectively.

With `O=c1cc(Nc2ccc3cc[nH]c3c2)c2ccccc2o1`, the 50% inhibitory concentration (IC50) in assay [1] is 20 nM; in assay [2], over 20000 nM; in assay [3] it was 7490 nM.

With `COc1ccc2c(ccn2-c2cc(=O)oc3ccccc23)c1`, the concentration for half-maximal inhibition (IC50) in assay [1] was 8140 nM; in assay [2] it was 16100 nM; in assay [3] it was 17400 nM.

With `O=c1cc(Nc2ccc3c(ccn3Cc3ccccc3)c2)c2ccccc2o1`, the half-maximal inhibitory concentration (IC50) in assay [1] is 210 nM; in assay [2] it was over 20000 nM; in assay [3] it was 6250 nM.

`O=Cc1ccc2c(ccn2-c2cc(=O)oc3ccccc23)c1`: the half-maximal inhibitory concentration (IC50) was determined as 18100 nM in assay [1], 10700 nM in assay [2] and 11400 nM in assay [3].

Regarding `O=c1cc(-c2cc3ccccc3[nH]2)c2ccccc2o1`, the figures for the IC50 in assay [1], in assay [2] and in assay [3] were 650 nM, 710 nM and 480 nM, respectively.

For the compound `CN(c1ccc2ccn(C)c2c1)c1cc(=O)oc2ccccc12`, the values for the IC50 in assay [1], in assay [2] and in assay [3] were 168 nM, 472 nM and 514 nM, respectively.

In the case of `O=c1cc(-n2ccc3ccccc32)c2ccccc2o1`, the concentration for half-maximal inhibition (IC50) in assay [1], in assay [2] and in assay [3] was over 20000 nM in each case.

For `O=c1cc(-n2ccc3cc([N+](=O)[O-])ccc32)c2ccccc2o1`, the IC50 in assay [1], in assay [2] and in assay [3] was over 20000 nM in each case.

`O=c1cc(-c2ccc3[nH]ccc3c2)c2ccccc2o1`: the IC50 is 1560 nM in assay [1], 2100 nM in assay [2] and 240 nM in assay [3].

Regarding `Cn1ccc2ccc(Nc3cc(=O)oc4ccccc34)cc21`, the results for the IC50 in assay [1], in assay [2] and in assay [3] were 1580 nM, 5460 nM and 2160 nM, respectively.

On to `O=c1cc(-n2ccc3cc(O)ccc32)c2ccccc2o1`, for which the concentration for half-maximal inhibition (IC50) came out at 12900 nM in assay [1], 17900 nM in assay [2] and 11900 nM in assay [3].

Turning to `CC(C)(C)OC(=O)n1c(-c2cc(=O)oc3ccccc23)cc2ccccc21`, the 50% inhibitory concentration (IC50) is 1180 nM in assay [1], 2180 nM in assay [2] and 3380 nM in assay [3].

Take `COc1cc2c(c(OC)c1OC)-c1ccc(OC)c(=O)cc1[C@@H](NC(C)=O)CC2` [COLCHICINE]: the IC50 in assay [2] turned out to be 122 nM; in assay [3], 108 nM.

With `CN(c1ccc2[nH]ccc2c1)c1cc(=O)oc2ccccc12`, the IC50 came to 14 nM in assay [1], 69 nM in assay [2] and 50 nM in assay [3].

Regarding `CCn1ccc2cc(N(C)c3cc(=O)oc4ccccc34)ccc21`, the IC50 was determined as 13 nM in assay [1], 58 nM in assay [2] and 27 nM in assay [3].

Take `Cc1ccc2[nH]cc(C(=O)c3cc(=O)oc4ccccc34)c2c1`: the IC50 in assay [1], in assay [2] and in assay [3] was over 20000 nM in each case.

As to `CCn1ccc2cc(Nc3cc(=O)oc4ccccc34)ccc21`, the figures for the IC50 in assay [1], in assay [2] and in assay [3] were 6040 nM, over 20000 nM and 3050 nM, respectively.

Take `O=c1cc(Nc2ccc3[nH]ccc3c2)c2ccccc2o1`: the IC50 in assay [1] was 260 nM; in assay [2] it was 589 nM; in assay [3], 2660 nM.

With `CC(C)(C)OC(=O)n1cc(-c2cc(=O)oc3ccccc23)c2ccccc21`, the IC50 in assay [1] came to 180 nM; in assay [2], 210 nM; in assay [3] it was 180 nM.

With `COc1ccc2[nH]cc(C(=O)c3cc(=O)oc4ccccc34)c2c1`, the IC50 in assay [1], in assay [2] and in assay [3] was over 20000 nM throughout.

As a reminder, the IC50 is the point on the concentration scale where inhibition reaches its midpoint.
